pIC50: −log10 of the molar value. Like-named read-outs stand apart in the source and are kept apart here.
Key:
[1] = biological target: T1, human Cereblon WT GST-tagged protein (Homo sapiens, UniProt Q96SW2); experiment: CRBN-binding affinity, HTRF (CEREBLON BINDING kit); conditions: for pIC50: CRBN binding, HTRF; for inhibition at 0.5 µM: read-out: Inhibition Rate at 0.5 µM (%); for inhibition at 2 µM: read-out: Inhibition Rate at 2 µM (%)
T1 construct: purchased CISBIO 64BDCRBNPEH
Outline: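 HTRF competition against a thalidomide-red probe using GST-tagged Cereblon and Eu-labelled anti-GST antibody. Test concentrations (final): 2 µM and 0.5 µM in diluent #9 (1X); blank controls lack compound and protein, containing PROTAC binding buffer.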

GSPT1 = biological target: T2, GSPT1 (Homo sapiens, UniProt P15170+Q96SW2); experiment: Western blot, substrate protein degradation in hPBMC Cell; format: cell-based; conditions: substrate protein remaining %, treated at 50 nM and 500 nM, 24 hours
T2 construct: endogenous in cells; host or cells: hPBMC
T2 sequence (P15170 whole entry): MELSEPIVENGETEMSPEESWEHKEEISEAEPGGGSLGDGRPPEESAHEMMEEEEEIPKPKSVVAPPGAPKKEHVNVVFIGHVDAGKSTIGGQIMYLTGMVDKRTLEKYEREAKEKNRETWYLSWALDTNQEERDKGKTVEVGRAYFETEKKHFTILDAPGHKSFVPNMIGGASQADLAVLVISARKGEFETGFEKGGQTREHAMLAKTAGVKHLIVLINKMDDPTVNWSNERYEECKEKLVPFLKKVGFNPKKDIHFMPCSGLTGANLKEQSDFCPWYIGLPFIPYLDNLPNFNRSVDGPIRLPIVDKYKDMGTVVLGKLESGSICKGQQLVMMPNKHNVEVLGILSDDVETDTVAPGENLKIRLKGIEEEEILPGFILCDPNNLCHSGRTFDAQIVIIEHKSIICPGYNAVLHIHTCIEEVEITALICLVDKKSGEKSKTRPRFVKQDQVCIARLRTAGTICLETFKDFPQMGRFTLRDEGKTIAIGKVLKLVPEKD
T2 sequence (Q96SW2 whole entry): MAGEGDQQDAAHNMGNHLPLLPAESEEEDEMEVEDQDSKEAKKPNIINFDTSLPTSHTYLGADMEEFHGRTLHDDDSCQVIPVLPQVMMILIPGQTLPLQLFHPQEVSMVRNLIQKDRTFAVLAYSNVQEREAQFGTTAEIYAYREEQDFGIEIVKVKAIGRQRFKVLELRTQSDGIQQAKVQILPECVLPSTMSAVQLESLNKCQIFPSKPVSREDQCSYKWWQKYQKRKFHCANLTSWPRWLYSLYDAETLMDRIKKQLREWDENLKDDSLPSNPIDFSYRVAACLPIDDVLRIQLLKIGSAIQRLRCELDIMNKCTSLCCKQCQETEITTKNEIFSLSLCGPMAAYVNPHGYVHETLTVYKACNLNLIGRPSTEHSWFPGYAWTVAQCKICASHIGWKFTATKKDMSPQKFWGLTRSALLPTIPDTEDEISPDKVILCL
T2 sequence (Q16531 whole entry partner): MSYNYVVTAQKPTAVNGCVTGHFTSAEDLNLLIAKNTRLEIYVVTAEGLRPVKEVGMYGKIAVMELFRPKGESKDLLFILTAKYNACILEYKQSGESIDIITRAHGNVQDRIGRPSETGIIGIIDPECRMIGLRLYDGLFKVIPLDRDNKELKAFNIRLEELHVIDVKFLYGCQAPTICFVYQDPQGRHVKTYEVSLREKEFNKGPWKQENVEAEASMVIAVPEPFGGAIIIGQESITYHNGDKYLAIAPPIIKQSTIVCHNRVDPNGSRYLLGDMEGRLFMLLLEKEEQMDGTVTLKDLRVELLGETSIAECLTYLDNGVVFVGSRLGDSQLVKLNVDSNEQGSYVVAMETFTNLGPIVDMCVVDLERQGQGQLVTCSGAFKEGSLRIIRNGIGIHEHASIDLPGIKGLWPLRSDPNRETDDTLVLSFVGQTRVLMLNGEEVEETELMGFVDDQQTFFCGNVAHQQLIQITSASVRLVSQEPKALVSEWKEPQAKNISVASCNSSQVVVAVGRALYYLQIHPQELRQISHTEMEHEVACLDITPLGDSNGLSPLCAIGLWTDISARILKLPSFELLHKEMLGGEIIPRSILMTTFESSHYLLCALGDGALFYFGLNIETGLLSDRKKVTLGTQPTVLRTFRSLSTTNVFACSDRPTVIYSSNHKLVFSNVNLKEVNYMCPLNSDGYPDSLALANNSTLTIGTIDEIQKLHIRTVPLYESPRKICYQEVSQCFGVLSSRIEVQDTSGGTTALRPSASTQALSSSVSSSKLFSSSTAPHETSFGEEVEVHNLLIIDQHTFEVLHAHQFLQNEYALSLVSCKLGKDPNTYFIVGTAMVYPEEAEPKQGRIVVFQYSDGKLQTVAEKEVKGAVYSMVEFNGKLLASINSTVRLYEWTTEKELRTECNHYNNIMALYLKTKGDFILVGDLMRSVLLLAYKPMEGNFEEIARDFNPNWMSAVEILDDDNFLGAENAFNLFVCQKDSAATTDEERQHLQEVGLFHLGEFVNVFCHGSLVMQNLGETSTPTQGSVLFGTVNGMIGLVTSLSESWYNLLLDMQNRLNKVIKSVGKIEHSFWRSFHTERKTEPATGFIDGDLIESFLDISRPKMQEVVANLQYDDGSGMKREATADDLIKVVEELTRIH
Procedure: (§1) Conventional Western blot assay was performed to evaluate the effects of the compounds of the present disclosure on the expression of target proteins in cells.
(§2) (1) Cell Seeding and Protein Harvesting: The selected cells were processed according to the cell seeding procedure and protein harvesting procedure in Table II-2. Table II-2 Cell Seeding and Protein Harvesting Procedures
(§3) (2) To the collected supernatant, 5X SDS sample loading buffer was added, followed by denaturation at 95°C for 5 minutes. The denatured samples were then separated by SDS-PAGE electrophoresis on a polyacrylamide gel. Proteins were transferred to a nitrocellulose membrane (0.45 µm NC membrane), blocked with blocking buffer at room temperature for 1 hour, and subjected to antibody incubation and development procedures according to the antibody manufacturer's instructions (Cell Signaling Technology).
(§4) Half-Maximal Degradation Concentration value (the drug concentration required for degrading proteins by 50%, abbreviated as DC50) reads method: comparing the grayscale values of Western blot bands from drug-treated samples with those from blank DMSO-treated controls, and identifying the drug concentration range at which the grayscale value is half that of the DMSO-treated control bands.
(§5) DC50 values can be calculated using ImageJ software to measure grayscale values of Western blot bands from drug-treated samples. The concentration-response curve is fitted to estimate the drug concentration corresponding to half the grayscale value.
(§6) Target protein remaining (%) refers to the percentage of target protein remaining in cells after treatment with protein degrader compounds.
(§7) Calculation method for target protein remaining (%): Use ImageJ software to measure grayscale values of Western blot bands from drug (protein degrader)-treated samples. The grayscale value of drug-treated bands is divided by that of internal control protein bands, and the resulting quotient is normalized to obtain the relative percentage of remaining target protein after protein degrader treatment. Target protein degradation rate(%) = 1−target protein remaining(%). [formula]

IKZF1 = biological target: T3, IKZF1 (Homo sapiens, UniProt Q13422+Q96SW2); experiment: as above; format: cell-based; conditions: substrate protein remaining %, treated at 50 nM and 500 nM, 24 hours
T3 construct: endogenous in cells; host or cells: hPBMC
T3 sequence (Q13422 whole entry): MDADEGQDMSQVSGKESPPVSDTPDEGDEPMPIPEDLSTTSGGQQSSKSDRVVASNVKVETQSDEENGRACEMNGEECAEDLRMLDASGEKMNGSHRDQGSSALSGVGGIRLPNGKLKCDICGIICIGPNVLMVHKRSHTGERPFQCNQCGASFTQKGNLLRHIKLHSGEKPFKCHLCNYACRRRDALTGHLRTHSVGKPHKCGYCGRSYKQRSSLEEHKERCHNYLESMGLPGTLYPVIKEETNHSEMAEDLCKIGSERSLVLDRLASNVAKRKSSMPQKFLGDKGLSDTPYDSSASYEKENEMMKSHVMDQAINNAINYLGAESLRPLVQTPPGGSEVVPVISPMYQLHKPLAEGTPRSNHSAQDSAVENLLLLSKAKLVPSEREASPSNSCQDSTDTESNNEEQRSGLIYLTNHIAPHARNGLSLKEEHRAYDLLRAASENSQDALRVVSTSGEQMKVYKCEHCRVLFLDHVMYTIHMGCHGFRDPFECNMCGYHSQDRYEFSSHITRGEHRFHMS
T3 sequence (Q96SW2 whole entry): as the sequence (Q96SW2 whole entry) above
T3 sequence (Q16531 whole entry partner): as the sequence (Q16531 whole entry partner) above
Procedure: as §1, §2, §3, §4, §5, §6, §7

IKZF2 = biological target: T4, IKZF2 (Homo sapiens, UniProt Q96SW2+Q9UKS7); experiment: as above; format: cell-based; conditions: substrate protein remaining %, treated at 50 nM and 500 nM, 24 hours
T4 construct: endogenous in cells; host or cells: hPBMC
T4 sequence (Q9UKS7 whole entry): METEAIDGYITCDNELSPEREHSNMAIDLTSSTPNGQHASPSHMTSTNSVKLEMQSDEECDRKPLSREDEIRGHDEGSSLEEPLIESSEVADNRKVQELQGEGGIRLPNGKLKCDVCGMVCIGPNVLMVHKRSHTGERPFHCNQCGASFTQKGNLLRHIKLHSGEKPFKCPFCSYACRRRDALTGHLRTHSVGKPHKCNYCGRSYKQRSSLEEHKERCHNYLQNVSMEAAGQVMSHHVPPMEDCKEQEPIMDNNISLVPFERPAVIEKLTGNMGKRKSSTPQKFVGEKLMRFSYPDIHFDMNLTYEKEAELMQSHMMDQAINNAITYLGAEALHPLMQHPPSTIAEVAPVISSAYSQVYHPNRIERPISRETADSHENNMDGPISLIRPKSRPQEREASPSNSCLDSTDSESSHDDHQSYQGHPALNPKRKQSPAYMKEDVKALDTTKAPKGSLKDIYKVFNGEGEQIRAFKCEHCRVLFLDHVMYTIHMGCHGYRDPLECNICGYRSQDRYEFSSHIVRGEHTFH
T4 sequence (Q96SW2 whole entry): as the sequence (Q96SW2 whole entry) above
T4 sequence (Q16531 whole entry partner): as the sequence (Q16531 whole entry partner) above
Procedure: as §1, §2, §3, §4, §5, §6, §7

IKZF3 = biological target: T5, IKZF3 (Homo sapiens, UniProt Q96SW2+Q9UKT9); experiment: as above; format: cell-based; conditions: substrate protein remaining %, treated at 50 nM and 500 nM, 24 hours
T5 construct: endogenous in cells; host or cells: hPBMC
T5 sequence (Q9UKT9 whole entry): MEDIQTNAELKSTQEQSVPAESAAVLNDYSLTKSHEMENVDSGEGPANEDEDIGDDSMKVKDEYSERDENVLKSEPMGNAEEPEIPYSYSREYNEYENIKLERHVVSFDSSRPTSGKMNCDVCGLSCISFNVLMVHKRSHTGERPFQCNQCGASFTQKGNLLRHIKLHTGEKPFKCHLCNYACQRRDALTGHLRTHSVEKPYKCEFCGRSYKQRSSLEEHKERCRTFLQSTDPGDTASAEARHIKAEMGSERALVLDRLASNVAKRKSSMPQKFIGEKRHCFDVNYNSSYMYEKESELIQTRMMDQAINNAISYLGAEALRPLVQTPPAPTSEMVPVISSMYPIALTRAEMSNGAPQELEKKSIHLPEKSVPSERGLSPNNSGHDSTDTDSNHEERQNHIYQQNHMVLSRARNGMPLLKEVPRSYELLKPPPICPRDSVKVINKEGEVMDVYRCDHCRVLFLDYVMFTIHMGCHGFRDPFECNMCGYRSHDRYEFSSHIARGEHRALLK
T5 sequence (Q96SW2 whole entry): as the sequence (Q96SW2 whole entry) above
T5 sequence (Q16531 whole entry partner): as the sequence (Q16531 whole entry partner) above
Procedure: as §1, §2, §3, §4, §5, §6, §7

CK1α = biological target: T6, CK1α (Homo sapiens, UniProt P48729+Q96SW2); experiment: as above; format: cell-based; conditions: substrate protein remaining %, treated at 50 nM and 500 nM, 24 hours
T6 construct: endogenous in cells; host or cells: hPBMC
Procedure: as §1, §2, §3, §4, §5, §6, §7

MM.1S = experiment: Tumor cell proliferation inhibition (CellTiter-Meiluncell Luminescent Cell Viability Assay); format: cell-based; conditions: MM.1S, 96 hours; for inhibition at 0.01 µM / inhibition at 0.5 µM: Homo sapiens, MM1.S; for inhibition at 0.01 µM: read-out: Inhibition Rate at 10 nM (%); for inhibition at 0.5 µM: 500 nM, read-out: Inhibition Rate at 500 nM (%)
Outline: (§8)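 Following overnight seeding, tumor cells received serial compound dilutions to final levels that included 10 nM and 500 nM. Viability was assessed by luminescence at the end of the specified exposure time. Cultures were kept at 37°C with 5% CO2.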

WEE1 = experiment: Western blot, substrate protein degradation in hPBMC Cell; format: cell-based, Human; conditions: substrate protein remaining %, treated at 50 nM and 500 nM, 24 hours
Procedure: as §1, §2, §3, §4, §5, §6, §7

SR = experiment: Tumor cell proliferation inhibition (CellTiter-Meiluncell Luminescent Cell Viability Assay); conditions: Homo sapiens, 96 hours, Table I-1, designed based on the ALK inhibitors, read-out: Inhibitory activity (IC50, nM) SR
Procedure: The tumor cells used herein were cultured in a cell culture medium listed in table 3 at 37°C in an incubator with 5% CO2. Prior to experimentation, all cell lines used were correctly identified by STR profiling, and tested negative for mycoplasma contamination using a mycoplasma detection kit through routine screenings. Table 3. Tumor cells and cell culture medium used in the present disclosure
The IC50 values of the compounds of the present disclosure (including the compounds in Table 1, Table 2, and Examples) were determined using the CellTiter-Meiluncell Luminescent Cell Viability Assay Kit from Dalian Meilun Biotech Co., Ltd. The detailed procedure is as follows: Tumor cells were seeded in 96-well cell culture plates at the densities specified in Table 4. On the following day, the test compounds of the present disclosure were subjected to serial dilution. […] Subsequently, 0.5 µL of the test compound dilution was transferred into the 96-well plate containing the cells, with each well containing 100 µL of cell culture medium. […] Into the 96-well plate, the diluted test compounds and corresponding detection reagents were added, resulting in final test compound concentrations of 500 nM and 10 nM, respectively. The experimental procedure is described below using the diluted 2 µM test compound as an example.
0.5 µL of the aforementioned diluted compound of the present disclosure (including the compounds in Table 1, Table 2, and Examples) was added to the seeded cells in 100 µL of medium, yielding a final test compound concentration of 10 nM. After the cells were treated with the compounds of the present disclosure for a specified period, the cell viability assay reagent was added to the culture medium according to the kit's instructions to determine cell viability. […] All controls were treated using the same procedure as the compounds of the present disclosure. […] Seeding protocol and treatment time for tumor cells

ALK = biological target: T7, ALK (Homo sapiens, UniProt Q96SW2+Q9HC35+Q9UM73); experiment: Western blot, target protein degradation in H2228 Cell; format: cell-based; conditions: substrate protein remaining %, treated at 500 nM and 50 nM, 24 hours
T7 construct: endogenous in cells; host or cells: H2228
Procedure: as §1, §2, §3, §4, §5, §6, §7

CDK6 = biological target: T8, CDK6 (Homo sapiens, UniProt Q00534); experiment: Western blot, target protein degradation in MDA-MB-231 Cell; format: cell-based; conditions: substrate protein remaining %, treated at 500 nM and 50 nM, 24 hours
T8 construct: endogenous in cells; host or cells: MDA-MB-231
T8 sequence (Q00534 whole entry): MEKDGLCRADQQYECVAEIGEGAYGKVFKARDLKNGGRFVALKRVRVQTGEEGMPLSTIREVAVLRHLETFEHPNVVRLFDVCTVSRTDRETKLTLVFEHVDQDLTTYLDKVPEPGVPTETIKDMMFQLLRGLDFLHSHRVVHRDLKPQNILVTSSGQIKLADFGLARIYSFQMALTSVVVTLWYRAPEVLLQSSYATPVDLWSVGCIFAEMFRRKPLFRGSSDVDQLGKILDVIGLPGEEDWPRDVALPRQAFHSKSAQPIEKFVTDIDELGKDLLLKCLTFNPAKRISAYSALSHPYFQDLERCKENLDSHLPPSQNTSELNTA
Procedure: as §1, §2, §3, §4, §5, §6, §7

CDK4 = biological target: T9, CDK4 (Homo sapiens, UniProt P11802); experiment: as above; format: cell-based; conditions: substrate protein remaining %, treated at 500 nM and 50 nM, 24 hours
T9 construct: endogenous in cells; host or cells: MDA-MB-231
T9 sequence (P11802 whole entry): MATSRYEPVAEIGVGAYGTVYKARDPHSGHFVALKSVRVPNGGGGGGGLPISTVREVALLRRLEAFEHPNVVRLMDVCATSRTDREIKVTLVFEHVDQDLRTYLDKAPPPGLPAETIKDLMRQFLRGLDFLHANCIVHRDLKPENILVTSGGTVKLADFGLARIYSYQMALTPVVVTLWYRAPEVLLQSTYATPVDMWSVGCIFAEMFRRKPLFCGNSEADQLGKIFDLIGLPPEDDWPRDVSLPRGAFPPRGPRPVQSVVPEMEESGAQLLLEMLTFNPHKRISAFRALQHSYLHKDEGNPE
Procedure: as §1, §2, §3, §4, §5, §6, §7

MV-4-11 = experiment: Tumor cell proliferation inhibition (CellTiter-Meiluncell Luminescent Cell Viability Assay); format: cell-based; conditions: Homo sapiens, 96 hours, Table I-9, CDK4/6 inhibitors
Outline: as §8

[2] = 10 nM, Table I-16, compounds of Formula (II)
[3] = Table I-16, compounds of Formula (II)

T1 sequence (Q96SW2 whole entry): as the sequence (Q96SW2 whole entry) above

Row | Compound | pIC50 [1] | inhibition at 0.5 µM [1] | inhibition at 2 µM [1] | Degradation of substrate protein GSPT1 (GSPT1) | Degradation of substrate protein IKZF1 (IKZF1) | Degradation of substrate protein IKZF2 (IKZF2) | Degradation of substrate protein IKZF3 (IKZF3) | Degradation of substrate protein CK1α (CK1α) | Degradation of substrate protein WEE1 (WEE1) | Degradation of substrate protein CDK6 (CDK6) | Degradation of substrate protein CDK4 (CDK4) | also measured
1 | O=C1CCC(N2Cc3ccc(CO)cc3C2=S)C(=O)N1 (stereo not drawn) [GT-05566, 3-(6-(hydroxymethyl)-1-thioxoisoindolin-2-yl)piperidine-2,6-dione] | > 6.30 |  |  | A (0% ≤ substrate protein remaining % ≤ 80%) | A (0% ≤ substrate protein remaining % ≤ 80%) | A (0% ≤ substrate protein remaining % ≤ 80%) | A (0% ≤ substrate protein remaining % ≤ 80%) | B (80%< substrate protein remaining %≤ 100%) | A (0% ≤ substrate protein remaining % ≤ 80%) |  |  | inhibition at 0.01 µM (MM.1S; [2]): 20 to 30%
2 | O=C1CCC(N2Cc3ccccc3C2=S)C(=O)N1 (stereo not drawn) [GT-05563, 3-(1-thioxoisoindolin-2-yl)piperidine-2,6-dione] | > 6.30 |  |  | A (0% ≤ substrate protein remaining % ≤ 80%) | A (0% ≤ substrate protein remaining % ≤ 80%) | A (0% ≤ substrate protein remaining % ≤ 80%) | A (0% ≤ substrate protein remaining % ≤ 80%) | B (80%< substrate protein remaining %≤ 100%) | A (0% ≤ substrate protein remaining % ≤ 80%) |  |  | 
3 | CCc1cc2c(cc1N1CCC(N3CCN(Cc4ccc5c(c4)CN(C4CCC(=O)NC4=O)C5=S)CC3)CC1)C(C)(C)c1[nH]c3cc(C#N)ccc3c1C2=O (stereo not drawn) [GT-05097, 8-(4-(4-((2-(2,6-dioxopiperidin-3-yl)-1-thioxoisoindolin-5-yl)methyl)piperazin-1-yl)piperidin-1-yl)-9-ethyl-6,6-dimethyl-11-oxo-6,11-dihydro-5H-benzo[b]carbazole-3-carbonitrile] |  | 40 to 53% | 80 to 100% |  |  |  |  |  |  |  |  | IC50 (SR): 20 to 30 nM; Degradation of substrate protein ALK (ALK): A (0% ≤ substrate protein remaining % ≤ 80%)
4 | CC(=O)c1c(C)c2cnc(Nc3ccc(N4CCN(Cc5cccc6c5CN(C5CCC(=O)NC5=O)C6=S)CC4)cn3)nc2n(C2CCCC2)c1=O (stereo not drawn) [GT-08772, 3-(4-((4-(6-((6-acetyl-8-cyclopentyl-5-methyl-7-oxo-7,8-dihydropyrido[2,3-d]pyrimidin-2-yl)amino)pyridin-3-yl)piperazin-1-yl)methyl)-1-thioxoisoindolin-2-yl)piperidine-2,6-dione] |  |  |  |  |  |  |  |  |  | A (0% ≤ substrate protein remaining % ≤ 80%) | A (0% ≤ substrate protein remaining % ≤ 80%) | inhibition at 0.01 µM (MV-4-11; MV4-11, 10 nM, read-out: Inhibition Rate at 10 nM (%)): 30 to 40%; inhibition at 0.5 µM (MV-4-11; MV4-11, 500 nM, read-out: Inhibition Rate at 500 nM (%)): 40 to 50%

The next lines start with results.

Row | pIC50 [1] | inhibition at 0.5 µM [1] | inhibition at 2 µM [1] | Compound | Degradation of substrate protein GSPT1 (GSPT1) | Degradation of substrate protein IKZF1 (IKZF1) | Degradation of substrate protein IKZF2 (IKZF2) | Degradation of substrate protein IKZF3 (IKZF3) | Degradation of substrate protein CK1α (CK1α) | Degradation of substrate protein WEE1 (WEE1) | Degradation of substrate protein CDK6 (CDK6) | Degradation of substrate protein CDK4 (CDK4) | also measured
5 | > 6.30 |  |  | O=C1CCC(N2Cc3cc(CO)ccc3C2=S)C(=O)N1 (stereo not drawn) [GT-06977, 3-(5-(hydroxymethyl)-1-thioxoisoindolin-2-yl)piperidine-2,6-dione] | B (80%< substrate protein remaining %≤ 100%) | B (80%< substrate protein remaining %≤ 100%) | B (80%< substrate protein remaining %≤ 100%) | A (0% ≤ substrate protein remaining % ≤ 80%) | B (80%< substrate protein remaining %≤ 100%) | B (80%< substrate protein remaining %≤ 100%) |  |  | inhibition at 0.5 µM (MM.1S; [3]): 35 to 40%; Inhibition Rate at 10 nM (%) (MM.1S; [2]): ln6
6 |  | 40 to 53% | 80 to 100% | CN(C)C(=O)c1cc2cnc(Nc3ccc(N4CCN(Cc5ccc6c(c5)CN(C5CCC(=O)NC5=O)C6=S)CC4)cn3)nc2n1C1CCCC1 (stereo not drawn) [GT-08765, 7-cyclopentyl-2-((5-(4-((2-(2,6-dioxopiperidin-3-yl)-1-thioxoisoindolin-5-yl)methyl)piperazin-1-yl)pyridin-2-yl)amino)-N,N-dimethyl-7H-pyrrolo[2,3-d]pyrimidine-6-carboxamide] |  |  |  |  |  |  | A (0% ≤ substrate protein remaining % ≤ 80%) | A (0% ≤ substrate protein remaining % ≤ 80%) | inhibition at 0.01 µM (MM.1S; 10 nM, Table I-9, CDK4/6 inhibitors): 30 to 40%; inhibition at 0.5 µM (MM.1S; Table I-9, CDK4/6 inhibitors): 40 to 50%
7 |  | 53 to 60% | 80 to 100% | CC(=O)c1c(C)c2cnc(Nc3ccc(N4CCN(Cc5ccc6c(c5)CN(C5CCC(=O)NC5=O)C6=S)CC4)cn3)nc2n(C2CCCC2)c1=O (stereo not drawn) [GT-08766, 3-(5-((4-(6-((6-acetyl-8-cyclopentyl-5-methyl-7-oxo-7,8-dihydropyrido[2,3-d]pyrimidin-2-yl)amino)pyridin-3-yl)piperazin-1-yl)methyl)-1-thioxoisoindolin-2-yl)piperidine-2,6-dione] |  |  |  |  |  |  | A (0% ≤ substrate protein remaining % ≤ 80%) | A (0% ≤ substrate protein remaining % ≤ 80%) | 
8 | > 6.30 |  |  | O=C1CCC(N2Cc3c(CO)cccc3C2=S)C(=O)N1 (stereo not drawn) [GT-06981, 3-(4-(hydroxymethyl)-1-thioxoisoindolin-2-yl)piperidine-2,6-dione] | B (80%< substrate protein remaining %≤ 100%) | B (80%< substrate protein remaining %≤ 100%) | B (80%< substrate protein remaining %≤ 100%) | A (0% ≤ substrate protein remaining % ≤ 80%) | B (80%< substrate protein remaining %≤ 100%) | B (80%< substrate protein remaining %≤ 100%) |  |  | inhibition at 0.01 µM (MM.1S; [2]): 20 to 30%; inhibition at 0.5 µM (MM.1S; [3]): 35 to 40%
